{"source": "patent US6503524B1", "about": "“Delivery of a skin health benefit agent to a treated substrate for transfer to skin” (Kimberly-Clark Worldwide, Inc., priority 2000, dated 2003)", "key": {"[1]": {"tested_on": "proteolytic activity of a fecal extract", "settings": "zinc sulfate heptahydrate 0-1 mM; FIG. 7", "procedure": "The supernatant was filtered through 0.22 micron cellulose acetate filters and stored at −80° C. until use."}, "[2]": {"tested_on": "proteolytic activity of infant urine", "settings": "zinc sulfate heptahydrate 0-50 mM; FIG. 8", "quoted_text": "The proteolytic activity of infant urine was measured using fluorescently labeled casein.\nTwo (2) infant urine (100 μL) samples were added to wells of a 96 white plate (Dynex) containing 80 μL of 12.5 μg/ml solution of a fluorescent dye-labeled casein substrate (EnzChek Protease Assay Kit (E-6639)) in 100 mM Tris-HCl, pH 8.0, and allowed to incubate for 60 minutes at 37° C. […] Reaction of the infant urine with the casein substrate cleaved the fluorescent dye from the substrate. RFUs were collected using the Fluoroskan Ascent System with excitation and emission filters of 485 and 538 nm, respectively. Data were collected each minute for 60 minutes at 37° C. and rates (RFU/min) from 30-50 minutes were calculated for each zinc concentration. Using the uninhibited wells as 100% protease activity, percent of urine proteolytic activity remaining was determined for each concentration of zinc inhibitor (Inhibited Rate/Uninhibited rate* 100)."}, "[3]": {"assay": "not given", "remark": "listed apart in the source"}, "[4]": {"tested_on": "EpiDerm™ 201 synthetic skin (keratinocytes), interleukin-1 alpha release", "text": "The synthetic skin, EpiDerm™ 201 (MatTek Corporation, Ashland, Mass. contains keratinocytes that release interleukin-1 alpha (IL-1 alpha) when subjected to proteases in the fecal extract. When the IL-1 alpha was released, it diffused from the skin into the fluid below the EpiDerm™. Samples of this fluid were taken and analyzed for the presence of the IL-1 alpha. Higher levels of IL-1 alpha was indicative of greater skin irritation.\nPrior to application onto the EpiDerm™, the fecal extract (10.4 μL) was pre-incubated for 30 minutes at room temperature with 250 mM zinc sulfate heptahydrate in water (2.6 μL). Water only and fecal extract only samples served as controls. After application of the samples to the EpiDerm™, 25 μL aliquots were removed from the underlying media at 8, 12, and 24 hours to test for the presence of the IL-1 alpha. The aliquots were directly added to a 1.5 mL micro-centrifuge tube containing 225 μL of filtered-sterilized 20 mM tris-HCl, pH 8.0, 1% BSA buffer and stored at −80° C. After all samples were collected, IL-1 alpha levels were quantified using the R&D Systems Interleukin-1 alpha Quantikine Kit (R&D Systems, Minneapolis, Minn."}, "[5]": {"settings": "1.0 mM zinc sulfate heptahydrate"}, "[6]": {"settings": "2.5 mM zinc sulfate heptahydrate"}, "[7]": {"settings": "5.0 mM zinc sulfate heptahydrate"}, "[8]": {"settings": "10.0 mM zinc sulfate heptahydrate"}, "[9]": {"settings": "20.0 mM zinc sulfate heptahydrate"}, "[10]": {"settings": ".1 mM zinc sulfate heptahydrate"}, "[11]": {"settings": "increased concentration of zinc sulfate heptahydrate (Table 1)"}}, "note": "Where two headings read alike, the source gives them in different places.", "data": [{"compound": "O.O.O.O.O.O.O.O=S(=O)([O-])[O-].[Zn+2]", "note": "[zinc sulfate heptahydrate]", "values": [{"measurement": "inhibition of hydrolysis of casein by the fecal extract (percent of fecal proteolytic activity remaining)", "setting": "[1]", "result": "effectively inhibited the hydrolysis of casein by the fecal extract in a dose-dependent manner"}, {"measurement": "pH, Fecal Extract Example B", "setting": "[5]", "result": 6.5}, {"measurement": "pH, Fecal Extract Example B", "setting": "[6]", "result": "6.0-6.5"}, {"measurement": "pH, Fecal Extract Example B", "setting": "[7]", "result": 6.0}, {"measurement": "pH, Fecal Extract Example B", "setting": "[8]", "result": 5.5}, {"measurement": "pH, Fecal Extract Example B", "setting": "[9]", "result": 5.5}, {"measurement": "pH, Fecal Extract Example B", "setting": "[10]", "result": 6.5}, {"measurement": "reduction of pH of the fecal extract sample", "setting": "[11]", "result": 1, "unit": "pH unit"}, {"measurement": "inhibition of hydrolysis of casein by infant urine (percent of urine proteolytic activity remaining)", "setting": "[2]", "result": "effectively inhibited the hydrolysis of casein by infant urine in a dose-dependent manner"}, {"measurement": "pH, Infant Urine Example F", "setting": "[3]; [5]", "result": 8.0}, {"measurement": "pH, Infant Urine Example G", "setting": "[3]; [5]", "result": 7.0}, {"measurement": "pH, Infant Urine Example H", "setting": "[3]; [5]", "result": 7.5}, {"measurement": "pH, Infant Urine Example F", "setting": "[3]; [6]", "result": "7.5-8.0"}, {"measurement": "pH, Infant Urine Example G", "setting": "[3]; [6]", "result": 6.5}, {"measurement": "pH, Infant Urine Example H", "setting": "[3]; [6]", "result": "7.0-7.5"}, {"measurement": "pH, Infant Urine Example F", "setting": "[3]; [7]", "result": 7.5}, {"measurement": "pH, Infant Urine Example G", "setting": "[3]; [7]", "result": 5.5}, {"measurement": "pH, Infant Urine Example H", "setting": "[3]; [7]", "result": 7.0}, {"measurement": "pH, Infant Urine Example F", "setting": "[3]; [8]", "result": 7.0}, {"measurement": "pH, Infant Urine Example G", "setting": "[3]; [8]", "result": 5.0}, {"measurement": "pH, Infant Urine Example H", "setting": "[3]; [8]", "result": 6.5}, {"measurement": "pH, Infant Urine Example F", "setting": "[3]; [9]", "result": 7.0}, {"measurement": "pH, Infant Urine Example G", "setting": "[3]; [9]", "result": 5.0}, {"measurement": "pH, Infant Urine Example H", "setting": "[3]; [9]", "result": 6.5}, {"measurement": "pH, Infant Urine Example F", "setting": "[3]; [10]", "result": 8.5}, {"measurement": "pH, Infant Urine Example G", "setting": "[3]; [10]", "result": 7.0}, {"measurement": "pH, Infant Urine Example H", "setting": "[3]; [10]", "result": 8.0}, {"measurement": "reduction of pH of the infant urine samples", "setting": "[3]; [11]", "result": "1.5-2.0 pH units"}, {"measurement": "proteolytic activity of fecal extract on synthetic skin (IL-1 alpha release)", "setting": "[4]; 0, 25, 50, 125 and 250 mM zinc sulfate heptahydrate, FIG. 10", "result": "effectively inhibits the proteolytic activity of fecal extract in a dose-dependent manner"}, {"measurement": "interleukin-1 alpha released into the underlying media", "setting": "[4]; FE+zinc (250 mM, 2.6 μL) relative to FE+water, 8, 12 and 24 hours, FIG. 9", "result": "reduced the amount of interleukin-1 alpha released"}]}]}
